Measurements reported in the NIST ThermoML archive (doi:10.1021/acs.jced.6b00496).
Numbers after ± are expanded uncertainties.

Experiment: xn = mol fraction of the nth substance listed
Conditions: 81.5 kPa, Liquid; for speed of sound: Sing-around technique in a fixed-path interferometer; for mass density: Vibrating tube method

CCn1cc[n+](C)c1.F[B-](F)(F)F [1-ethyl-3-methylimidazolium tetrafluoroborate] + CC(=O)N(C)C
Conditions	mass density [kg/m3]	speed of sound [m/s]
293.15 K, x1 = 0.131	1020.02 ± 4.1	1520.9 ± 3.3
293.15 K, x1 = 0.198	1054.86 ± 4.2	1544.9 ± 3.3
293.15 K, x1 = 0.2976	1098.69 ± 4.4	1566.5 ± 3.3
293.15 K, x1 = 0.3868	1134.17 ± 4.6	1581.8 ± 3.4
293.15 K, x1 = 0.4734	1164.33 ± 4.7	1594.3 ± 3.4
293.15 K, x1 = 0.563	1190.97 ± 4.8	1606.8 ± 3.5
293.15 K, x1 = 0.7089	1230.24 ± 5	1620 ± 3.5
293.15 K, x1 = 0.7973	1244.59 ± 5.1	1625.7 ± 3.6
293.15 K, x1 = 0.8821	1257.25 ± 5.2	1629.9 ± 3.6
293.15 K, x1 = 1	1285.95 ± 5.3	1640.4 ± 3.7
298.15 K, x1 = 0.131	1015.67 ± 4.1	1502.5 ± 3.3
298.15 K, x1 = 0.198	1050.63 ± 4.2	1527.6 ± 3.3
298.15 K, x1 = 0.2976	1094.55 ± 4.4	1550.4 ± 3.3
298.15 K, x1 = 0.3868	1130.11 ± 4.6	1566.4 ± 3.4
298.15 K, x1 = 0.4734	1160.32 ± 4.7	1579.8 ± 3.4
298.15 K, x1 = 0.563	1187.07 ± 4.8	1592.9 ± 3.5
298.15 K, x1 = 0.7089	1226.34 ± 5	1606.9 ± 3.5
298.15 K, x1 = 0.7973	1240.73 ± 5.1	1613 ± 3.6
298.15 K, x1 = 0.8821	1253.4 ± 5.1	1617.4 ± 3.6
298.15 K, x1 = 1	1282.14 ± 5.3	1628.4 ± 3.7
303.15 K, x1 = 0.131	1011.32 ± 4.1	1484.4 ± 3.3
303.15 K, x1 = 0.198	1046.39 ± 4.2	1510.4 ± 3.3
303.15 K, x1 = 0.2976	1090.43 ± 4.4	1534.3 ± 3.3
303.15 K, x1 = 0.3868	1126.06 ± 4.5	1551.3 ± 3.4
303.15 K, x1 = 0.4734	1156.33 ± 4.7	1565.3 ± 3.4
303.15 K, x1 = 0.563	1183.16 ± 4.8	1579.1 ± 3.5
303.15 K, x1 = 0.7089	1222.46 ± 5	1594.1 ± 3.5
303.15 K, x1 = 0.7973	1236.88 ± 5.1	1600.4 ± 3.6
303.15 K, x1 = 0.8821	1249.55 ± 5.1	1605.1 ± 3.6
303.15 K, x1 = 1	1278.34 ± 5.3	1616 ± 3.7
308.15 K, x1 = 0.131	1006.92 ± 4	1466.5 ± 3.3
308.15 K, x1 = 0.198	1042.17 ± 4.2	1493.4 ± 3.3
308.15 K, x1 = 0.2976	1086.31 ± 4.4	1518.5 ± 3.3
308.15 K, x1 = 0.3868	1122.03 ± 4.5	1536.2 ± 3.4
308.15 K, x1 = 0.4734	1152.37 ± 4.6	1551.1 ± 3.4
308.15 K, x1 = 0.563	1179.25 ± 4.8	1565.5 ± 3.5
308.15 K, x1 = 0.7089	1218.61 ± 5	1581.4 ± 3.5
308.15 K, x1 = 0.7973	1233.06 ± 5	1588 ± 3.6
308.15 K, x1 = 0.8821	1245.73 ± 5.1	1592.9 ± 3.6
308.15 K, x1 = 1	1274.55 ± 5.3	1604.9 ± 3.7
313.15 K, x1 = 0.131	1002.63 ± 4	1448.8 ± 3.3
313.15 K, x1 = 0.198	1037.96 ± 4.2	1476.5 ± 3.3
313.15 K, x1 = 0.2976	1082.21 ± 4.3	1502.7 ± 3.3
313.15 K, x1 = 0.3868	1118 ± 4.5	1521.4 ± 3.4
313.15 K, x1 = 0.4734	1148.41 ± 4.6	1536.9 ± 3.4
313.15 K, x1 = 0.563	1175.34 ± 4.8	1552.1 ± 3.5
313.15 K, x1 = 0.7089	1214.78 ± 4.9	1568.8 ± 3.5
313.15 K, x1 = 0.7973	1229.25 ± 5	1575.7 ± 3.6
313.15 K, x1 = 0.8821	1241.92 ± 5.1	1580.8 ± 3.6
313.15 K, x1 = 1	1270.78 ± 5.2	1593.4 ± 3.7
318.15 K, x1 = 0.131	998.322 ± 4	1431.2 ± 3.3
318.15 K, x1 = 0.198	1033.75 ± 4.1	1459.8 ± 3.3
318.15 K, x1 = 0.2976	1078.11 ± 4.3	1487.1 ± 3.3
318.15 K, x1 = 0.3868	1113.98 ± 4.5	1506.6 ± 3.4
318.15 K, x1 = 0.4734	1144.47 ± 4.6	1522.9 ± 3.4
318.15 K, x1 = 0.563	1171.44 ± 4.7	1538.7 ± 3.5
318.15 K, x1 = 0.7089	1210.93 ± 4.9	1556.3 ± 3.5
318.15 K, x1 = 0.7973	1225.46 ± 5	1563.5 ± 3.6
318.15 K, x1 = 0.8821	1238.13 ± 5.1	1568.9 ± 3.6
318.15 K, x1 = 1	1267.03 ± 5.2	1582 ± 3.7
323.15 K, x1 = 0.131	994.081 ± 4	1413.7 ± 3.3
323.15 K, x1 = 0.198	1029.41 ± 4.1	1443.1 ± 3.3
323.15 K, x1 = 0.2976	1074.03 ± 4.3	1471.6 ± 3.3
323.15 K, x1 = 0.3868	1109.98 ± 4.5	1491.9 ± 3.4
323.15 K, x1 = 0.4734	1140.55 ± 4.6	1509 ± 3.4
323.15 K, x1 = 0.563	1167.54 ± 4.7	1525.4 ± 3.5
323.15 K, x1 = 0.7089	1207.14 ± 4.9	1543.9 ± 3.5
323.15 K, x1 = 0.7973	1221.69 ± 5	1551.4 ± 3.6
323.15 K, x1 = 0.8821	1234.36 ± 5.1	1557 ± 3.6
323.15 K, x1 = 1	1263.3 ± 5.2	1570.6 ± 3.7
328.15 K, x1 = 0.131	990.013 ± 4	1396.4 ± 3.3
328.15 K, x1 = 0.198	1025.2 ± 4.1	1426.6 ± 3.3
328.15 K, x1 = 0.2976	1069.95 ± 4.3	1456.1 ± 3.3
328.15 K, x1 = 0.3868	1105.98 ± 4.5	1477.4 ± 3.4
328.15 K, x1 = 0.4734	1136.62 ± 4.6	1495.2 ± 3.4
328.15 K, x1 = 0.563	1163.66 ± 4.7	1512.2 ± 3.5
328.15 K, x1 = 0.7089	1203.38 ± 4.9	1531.6 ± 3.5
328.15 K, x1 = 0.7973	1217.94 ± 5	1539.4 ± 3.6
328.15 K, x1 = 0.8821	1230.61 ± 5	1545.3 ± 3.6
328.15 K, x1 = 1	1259.58 ± 5.2	1559.4 ± 3.7
333.15 K, x1 = 0.131	986.018 ± 4	1379 ± 3.3
333.15 K, x1 = 0.198	1021.01 ± 4.1	1410.2 ± 3.3
333.15 K, x1 = 0.2976	1065.88 ± 4.3	1440.9 ± 3.3
333.15 K, x1 = 0.3868	1101.99 ± 4.4	1462.9 ± 3.4
333.15 K, x1 = 0.4734	1132.72 ± 4.6	1481.5 ± 3.4
333.15 K, x1 = 0.563	1159.8 ± 4.7	1499.1 ± 3.4
333.15 K, x1 = 0.7089	1199.69 ± 4.9	1519.4 ± 3.5
333.15 K, x1 = 0.7973	1214.19 ± 5	1527.4 ± 3.6
333.15 K, x1 = 0.8821	1226.87 ± 5	1533.6 ± 3.6
333.15 K, x1 = 1	1255.88 ± 5.2	1548.2 ± 3.7
338.15 K, x1 = 0.131	982.059 ± 3.9	1361.9 ± 3.3
338.15 K, x1 = 0.198	1016.81 ± 4.1	1393.9 ± 3.3
338.15 K, x1 = 0.2976	1061.83 ± 4.3	1425.7 ± 3.3
338.15 K, x1 = 0.3868	1098.01 ± 4.4	1448.6 ± 3.4
338.15 K, x1 = 0.4734	1128.83 ± 4.6	1467.9 ± 3.4
338.15 K, x1 = 0.563	1155.95 ± 4.7	1486.1 ± 3.4
338.15 K, x1 = 0.7089	1195.92 ± 4.9	1507.3 ± 3.5
338.15 K, x1 = 0.7973	1210.46 ± 4.9	1515.6 ± 3.6
338.15 K, x1 = 0.8821	1223.16 ± 5	1528.1 ± 3.6
338.15 K, x1 = 1	1252.2 ± 5.2	1537.2 ± 3.7
343.15 K, x1 = 0.131	978.076 ± 3.9	1344.8 ± 3.3
343.15 K, x1 = 0.198	1012.61 ± 4.1	1377.7 ± 3.3
343.15 K, x1 = 0.2976	1057.78 ± 4.2	1410.6 ± 3.3
343.15 K, x1 = 0.3868	1094.04 ± 4.4	1434.4 ± 3.4
343.15 K, x1 = 0.4734	1124.94 ± 4.5	1454.4 ± 3.4
343.15 K, x1 = 0.563	1152.06 ± 4.7	1473 ± 3.4
343.15 K, x1 = 0.7089	1192.22 ± 4.8	1495.4 ± 3.5
343.15 K, x1 = 0.7973	1206.75 ± 4.9	1503.8 ± 3.6
343.15 K, x1 = 0.8821	1219.46 ± 5	1510.6 ± 3.6
343.15 K, x1 = 1	1248.54 ± 5.2	1526.2 ± 3.7
